Data from paper PMC3904506 (International journal of biological macromolecules, 2013).
Where a name gives a salt, the structure may show the parent alone. Read-outs that look alike come from different tables or passages of the source. Values belong to the compound of their own block, whether it stands above or below them.

Assays:
CDA variant Q27/A70 [1] = biological target: T1, CDA variant Q27/A70 (Homo sapiens, UniProt P32320, K27Q); experiment: Inhibition of deoxycytidine deamination, Q27/A70 variant
CDA variant K27/A70 [2] = biological target: T2, CDA variant K27/A70 (Homo sapiens, UniProt P32320); experiment: Inhibition of deoxycytidine deamination, K27/A70 variant; conditions: double-reciprocal plots, substrate deoxycytidine
CDA variant K27/T70 [3] = biological target: T3, CDA variant K27/T70 (Homo sapiens, UniProt P32320, A70T); experiment: Inhibition of deoxycytidine deamination, K27/T70 variant
CDA variant K27/T70 [4] = biological target: T3, CDA variant K27/T70; experiment: Oxidative resistance experiments, K27/T70 variant; type: biochemical
CDA variant Q27/A70 [5] = biological target: T1, CDA variant Q27/A70; experiment: Oxidative resistance experiments, Q27/A70 variant; type: biochemical
CDA mutant E24Q [6] = biological target: T4, CDA mutant E24Q (Homo sapiens, UniProt P32320, E24Q); experiment: Oxidative resistance experiments, E24Q mutant; type: biochemical
CDA variant K27/A70 [7] = biological target: T2, CDA variant K27/A70; experiment: Oxidative resistance experiments, K27/A70 variant; type: biochemical
CDA mutant E24Q [8] = biological target: T4, CDA mutant E24Q; experiment: Inhibition of deoxycytidine deamination, E24Q mutant
CDA variant K27/T70 [9] = biological target: T3, CDA variant K27/T70; experiment: CDA activity assay, substrate kinetics, K27/T70 variant; conditions: 37 °C
CDA variant K27/A70 [10] = biological target: T2, CDA variant K27/A70; experiment: CDA activity assay, substrate kinetics, K27/A70 variant
CDA variant Q27/A70 [11] = biological target: T1, CDA variant Q27/A70; experiment: CDA activity assay, substrate kinetics, Q27/A70 variant; conditions: 37 °C
CDA mutant E24Q [12] = biological target: T4, CDA mutant E24Q; experiment: CDA activity assay, substrate kinetics, E24Q mutant; conditions: 37 °C
[13] = Q27/A70, double-reciprocal plots, substrate deoxycytidine
[14] = K27/T70, double-reciprocal plots, substrate deoxycytidine
[15] = 100 μM NaOCl, 60 min of incubation, 37 °C
[16] = read-out: K0.5 (concentration at 50% inhibition of activity), NaOCl

T3 sequence (P32320 whole entry A70T): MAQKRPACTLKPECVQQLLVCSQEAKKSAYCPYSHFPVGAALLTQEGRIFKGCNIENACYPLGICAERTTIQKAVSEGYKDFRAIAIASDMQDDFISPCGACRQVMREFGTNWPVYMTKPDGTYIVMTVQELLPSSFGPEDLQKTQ
T1 sequence (P32320 whole entry K27Q): as the sequence (P32320 whole entry A70T) above, with K27Q, T70A counted along it
T4 sequence (P32320 whole entry E24Q): as the sequence (P32320 whole entry A70T) above, with E24Q, T70A counted along it

Structure (SMILES): Nc1ccn([C@@H]2O[C@H](CO)[C@@H](O)[C@H]2O)c(=O)c1 [3-Deaza-cytidine]
Ki (CDA variant Q27/A70 [1]): 1.8 µM | Ki (CDA mutant E24Q [8]): 2.9 µM | Ki (CDA variant K27/T70 [3]): 2.4 µM

Structure (SMILES): Nc1ncc([C@@H]2O[C@H](CO)[C@@H](O)[C@H]2O)c(=O)[nH]1 [Pseudoisocytidine-HCl]
Ki (CDA variant Q27/A70 [1]; [13]): 46 µM | Ki (CDA variant K27/A70 [2]): 28 µM | Ki (CDA variant K27/T70 [3]; [14]): 60 µM

Structure (SMILES): Nc1ccn([C@H]2CC[C@@H](CO)O2)c(=O)n1 [2′,3′-CdR, 2′,3′-dideoxycytidine]
Km (CDA variant K27/T70 [9]): not substrate | Km (CDA variant K27/A70 [10]; 37 °C): not substrate | Km (CDA variant Q27/A70 [11]): not substrate | Km (CDA mutant E24Q [12]): not substrate

Structure (SMILES): Nc1ncn([C@@H]2O[C@H](CO)[C@@H](O)[C@@H]2O)c(=O)n1 [Fazarabine, 1-β-D-arabinofuranosyl-5-azacytosine]
increase in catalytic efficiency with respect to the Q27/A70 and K27/T70 variants (CDA variant K27/A70 [10]): 3 fold

Structure (SMILES): [Na+].[O-]Cl [NaOCl, sodium hypochlorite]
residual activity (CDA variant K27/T70 [4]; [15]): 27.5% | residual activity (CDA variant Q27/A70 [5]; [15]): 49% | IC50 (CDA variant Q27/A70 [5]; [16]): 100 µM | residual activity (CDA mutant E24Q [6]; NaOCl (100 μM, Fig. 6A), 60 min of incubation): 97% | IC50 (CDA mutant E24Q [6]; [16]): 1000 µM | residual activity (CDA variant K27/A70 [7]; [15]): 32% | IC50 (CDA variant K27/A70 [7]; [16]): 60 µM

The next lines start with the values.

Ki (CDA variant Q27/A70 [1]; [13]): 0.26 µM | Ki (CDA variant K27/A70 [2]): 0.04 µM | Ki (CDA variant K27/T70 [3]; [14]): 0.26 µM
Structure (SMILES): O=C1NC(O)CCN1[C@H]1C[C@H](O)[C@@H](CO)O1 (stereo partly drawn) [Tetrahydro-2′-deoxyuridine]

IC50 (CDA variant K27/T70 [4]; read-out: K0.5, H2O2): 11500 µM | IC50 (CDA variant Q27/A70 [5]; read-out: K0.5, H2O2): 15000 µM | IC50 (CDA mutant E24Q [6]; read-out: K0.5, H2O2): 8000 µM | IC50 (CDA variant K27/A70 [7]; read-out: K0.5, H2O2): 23500 µM
Structure (SMILES): OO [H2O2, hydrogen peroxide]

enthalpy of binding ΔH (van't Hoff plot) (CDA variant K27/A70 [10]; temperature range 10–35 °C): 3.57 kcal/mol | enthalpy of binding ΔH (van't Hoff plot) (CDA variant K27/A70 [10]; temperature range 35–80 °C): -8.88 kcal/mol
Structure (SMILES): Nc1ccn([C@H]2C[C@H](O)[C@@H](CO)O2)c(=O)n1 [CdR, 2′-deoxycytidine]
